Test results: patent US5108916A, “Process for stereoselectively hydrolyzing, transesterifying or esterifying with immobilized isozyme of lipase from Candida rugosa” (priority 1989, dated 1992)
Several values for one entry are separate records, joined by “and”; a condition that tells them apart may be missing. Equal entries are not always repeated. Where two headings read alike, the source gives them in different places.

Key:
Lipase MY = experiment: Two phase Lipase MY hydrolysis of HPPA-Me in organic solvent/water mixtures; format: biochemical, Candida rugosa
Procedure: A. 75% organic solvent/25% aqueous buffer--Fifty milligrams of R,S-HPPA-Me was combined in 10 ml Scintillation vial with 7.5 ml of organic solvent, 2.5 ml of 50 mM phosphate buffer pH 6.0, and 5 mg Lipase MY. The reactions were placed on shaker and shaken for a period of 0-43 hours with samples being taken at various times.
B. 25% organic solvent/75% aqueous buffer--Fifty milligrams of R,S-HPPA-Me was combined, in 10 ml Scintillation vial with 2.5 ml of organic solvent, 7.5 ml 50mM phosphate buffer (pH 6.8), and 5 mg Lipase MY. The reactions were shaken for a period of 0-143 hours with samples being taken at various time points.
The data in Table 2 represents the % conversion and % R-HPPA produced using the indicated organic solvents in a two-phase system wherein 75% […] of the total vehicle (solvent) was water and the balance (25%) was organic solvents.

[1] = Conversion of ketoprofen esters in organic solvent/oleic acid media; format: biochemical
Procedure: To optimize the organic solvent used in the presence of oleic acid a variety of organic solvents were used, along with a variety of ketoprofen esters. In this experiment, 50 mg of ketoprofen esters were weighed into flasks, along with 1 ml of oleic acid and 9 ml of an organic solvent. The flasks were capped and incubated at 35° C., 250 rpm, for 10-26 hours before stopping the reaction by first adding 4 ml CHCl3 to solubilize the substrates and products, then filtering through a 0.2 um Gelman Nylaflo filter. Samples were then diluted in methanol and analyzed by HPLC as in Example 18. The experiment was also performed using 200 ul of oleic acid and 10ml buffer, which was acidified, extracted with CHCl3 and analyzed by HPLC as above.
One ml of oleic acid was added, as was 9 ml of buffer (100 mM (NH4)H2 PO4, pH 5.5) or organic solvent. Flasks were placed into a 35° C. incubator and shaken at 250 rpm for 13 hours. Reaction was stopped by adding 5 ml CHCl3 to solubilize the organic material and filtering the solutions using 0.2 um Gelman Nylaflo membranes to remove the enzyme. Samples were analyzed on an ODS-3 RAC column using CH3 OH:10 mM (NH4)H2PO4 (60:40) as eluant, flow rate 4 ml/min, and detection at 254 nm. %ee was determined by the resolution of diastereomeric amides on the above HPLC system, as per Example 18.

CSC-2 = experiment: Effect of additives and solvents on hydrolysis of ketoprofen monoglyceride by CSC-2; format: biochemical, Candida rugosa
Procedure: Hydrolysis of ketoprofen-monoglyceride (50mg) was carried out in various DMF-100mM (NH4)H2 PO4 buffer (pH 5.5) mixtures. In each flask a solution of ketoprofen monoglyceride (50mg) in DMF (200ul) was added. DMF was added followed by 100mM (NH4)H2 PO4 buffer. […] After 22 hours, 2%, 5%, and 10% DMF samples were acidified, extracted with CHCl3 (2×10ml) and analyzed. The other samples were analyzed directly as in Example 18. The acid produced decreases with increasing amount of DMF.
Small amounts of DMF were added to the reaction mixture to increase the solubility of KPG. In all cases 100mM ammonium phosphate buffer (pH 5.5) was used and 2% (v/v) detergents were added and the total volume was 10ml.
The buffer reaction (entry #2 in the table) contained enzyme in buffer (2 ml) and the buffer only (entry #1 in the table) reaction contained no enzyme.
The presence of a surfactant like Tween increases the solubility o lipophilic compounds in water. […] Tween 80 was added to make 1% and 2% solution (v/v). Bovine serum albumin (BSA) (10mg) was added to each of two flasks. A solution of 50mg of ketoprofen monoglyceride in 200ul DMF was added to each. After 20 hours at 250 rpm and 35° C. the reaction mixtures were acidified, extracted and analyzed by the usual HPLC procedure as in Example 18.
Various surfactants were used at 2% of the reaction volume to determine their effect on the enzymatic reaction involving the conversion of ketoprofen monoglyceride (KPG) to ketoprofen (KP). […] Flasks were covered with parafilm and incubated in a 35° C. water bath at 250 rpm, typically overnight. Reactions were stopped by acidification, extracted with CHCl3 (2×10 ml). The %acid and %ee were determined by the method of Example 18. It is to be noted that Hydrophile-Lipophile Balance (HLB) values have no apparent bearing on the ability of the surfactant to enhance the conversion of KPG to KP.
75 mg of KPG (in the absence of DMF) was individually weighed into 50 ml Erlenmeyer flasks. […] 9 ml of 100 mM (NH4)H2 PO4, pH 5.5 buffer was added, and the flasks were placed into a 35° C., 250 rpm water bath incubator for 20 hours. The reactions were acidified, extracted with CHCl3 and examined by HPLC as in Example 18. The %ee was determined as per Example 18.
Various amounts of oleic acid or its esters were added, and the reactions stopped at the times indicated, acidified, extracted with CHCl3 and analyzed as in Example 18.
An experiment was performed as in Example 41, but using 100, 200 and 500 ul of olive oil to determine if it would enhance the rate of conversion of KPG to KP. […] After 20 hours, all reactions were acidified, extracted with CHCl3 and analyzed by HPLC as in Example 18. The results are given below:
50 mg of KPG was weighed into Erlenmeyer flasks. […] Flasks were incubated at 35° C., 250 rpm for 23 hours. The reactions were stopped by acidification, extracted with CHCl3, and analyzed by HPLC as in Example 18. The additive is listed along with its percentage composition of glycerides of oleic acid.
To determine the problems associated with having oleic acid or oleate. esters in the reaction media, the following experiment was performed. […] Flasks were placed in a 35° C. incubator at 250 rpm, and the reactions were sampled by taking 200 ul aliquots at various time points. These aliquots were analyzed by HPLC (ODS-3 RAC column, CH3 OH: 10 mM (NH4)H2 PO4 (60:40) eluant, 4 ml/min, 254 nm detection) to determine the course of reaction. When approximately 40% acid was produced, the reactions were stopped by placing the flasks in the -70° C. freezer. Two extraction procedures were utilized to determine the best method of isolating S-Ketoprofen free of oleic acid. The first (listed as Extraction Procedure I in the following table) involved first making the solution basic (pH 10) with NaOH, then extracting with hexane, then CHCl3.

[2] = Buffer 10 ml, OA 200 ul, enzyme not named in Example 55
[3] = Hexane 9 ml, OA 1 ml, 10-26 hours
[4] = Hexane 9 ml, OA 1 ml, * stopped at 10 Hr
[5] = Isooctane 9 ml, OA 1 ml, * stopped at 10 Hr
[6] = solvent/buffer 1:1 two phase, 26 hours
[7] = solvent/buffer 1:1 two phase, 26 hours, buffer = 100
[8] = KPG 50 mg, 100 mg CSC-2 on silica (279-SD-1), 9 ml solvent (or buffer)/1 ml oleic acid, 13 hours

## BrCCBr [1,2-dibromoethane]
Lipase MY; solvent 25%, 43 hr
  % R: 73%
  Conversion (ester/acid): 33%
Lipase MY; solvent 75%, 43 hr
  % R: 57%
  Conversion (ester/acid): 23%

## CC(C(=O)OCCOCCO)c1cccc(C(=O)c2ccccc2)c1 (centres unmarked) [Diethylene glycol ester, Diethylene Glycol Ester of Ketoprofen]
[1]; Buffer 10 ml, OA 200 ul
  % ee: 30%
[1]; [2]
  % Acid: 32%
[1]; [3]
  % Acid: 56%
[1]; [4]
  % ee: 13%
[1]; Isooctane 9 ml, OA 1 ml
  % Acid: 60%
[1]; [5]
  % ee: 17%

## CC(C(=O)OCC(O)CO)c1cccc(C(=O)c2ccccc2)c1 (centres unmarked) [Monoglyceride Ester, ketoprofen monoglyceride]
[1]; Buffer 10 ml, OA 200 ul
  % ee: 96%
[1]; [2]
  % Acid: 26%
[1]; CHCl3 9 ml, OA 1 ml
  % Acid: 0%
[1]; [3]
  % Acid: 47%
[1]; [4]
  % ee: 97%
[1]; Isooctane 9 ml, OA 1 ml
  % Acid: 31%
[1]; [5]
  % ee: 96%
[1]; Toluene 9 ml, OA 1 ml
  % Acid: 0%

## C1=CCCCCCC1 [Cyclooctene]
CSC-2; [6]
  EE of S-acid: 95%
CSC-2; [7]
  Relative Rate: 387
[1]; KPEG 50 mg, as E212
  % Acid: 16%
[1]; KPEG, as E212
  % ee S-acid: 92%
[1]; [8]
  % Acid: 38%
[1]; KPG, as E212
  % ee S-acid: 98%

## COC(=O)C(C)c1cccc(C(=O)c2ccccc2)c1 (centres unmarked) [Methyl ester]
[1]; Buffer 10 ml, OA 200 ul
  % ee: 96%
[1]; [2]
  % Acid: 2%
[1]; CHCl3 9 ml, OA 1 ml
  % Acid: 0%
[1]; [3]
  % Acid: 0.8%
[1]; Isooctane 9 ml, OA 1 ml
  % Acid: 2%
[1]; [5]
  % ee: 93%
[1]; Toluene 9 ml, OA 1 ml
  % Acid: 0%

## Cc1ccccc1 [toluene]
Lipase MY; solvent 25%, 2.7 hr
  % R: 100%
Lipase MY; solvent 75%, 2.7 hr
  % R: 90%
  Conversion (ester/acid): 25%
CSC-2; [6]
  EE of S-acid: 58%
CSC-2; [7]
  Relative Rate: 15

## ClC(Cl)=C(Cl)Cl [tetrachloroethylene]
Lipase MY; solvent 25%, 5.3 hr
  % R: 83%
  Conversion (ester/acid): 61%
Lipase MY; solvent 75%, 5.3 hr
  % R: 85%
  Conversion (ester/acid): 58%
CSC-2; [6]
  EE of S-acid: 27%
CSC-2; [7]
  Relative Rate: 3
[1]; KPEG 50 mg, as E212
  % Acid: 0%
[1]; KPEG, as E212
  % ee S-acid: 0%
[1]; [8]
  % Acid: 1%
[1]; KPG, as E212
  % ee S-acid: 0%

## CC(C)O [2-propanol]
Lipase MY; solvent 25%, 43 hr
  % R: 0%
  Conversion (ester/acid): 0%
Lipase MY; solvent 75%, 43 hr
  % R: 0%
  Conversion (ester/acid): 0%

## C1CCCCC1 [cyclohexane]
Lipase MY; solvent 25%, 2.7 hr
  % R: 100%
  Conversion (ester/acid): 35%
Lipase MY; solvent 75%, 2.7 hr
  % R: 83%
  Conversion (ester/acid): 31%
CSC-2; [6]
  EE of S-acid: 95%
CSC-2; [7]
  Relative Rate: 185
[1]; KPEG 50 mg, as E212
  % Acid: 29%
[1]; KPEG, as E212
  % ee S-acid: 83%
[1]; [8]
  % Acid: 38%
[1]; KPG, as E212
  % ee S-acid: 98%

## CCCCCC [Hexane]
CSC-2
  EE of S-acid: 93%
CSC-2; pH 5.5, 1560 min
  Relative Rate: 80
[1]
  % Acid: 12% and 16%
  % ee S-acid: 94% and 87%

## Fc1ccccc1 [fluorobenzene]
Lipase MY; solvent 25%, 5.3 hr
  % R: 95%
  Conversion (ester/acid): 40%
Lipase MY; solvent 75%, 5.3 hr
  % R: 86%
  Conversion (ester/acid): 29%
